Row | melting point [°C] | Structure (SMILES)
1 | 149 | Cc1noc(C)c1S(=O)(=O)Nc1cccc(C=C2c3ccccc3CCc3ccccc32)c1
2 | 186 to 187 | COc1cc(OC)c(/C=C/S(=O)(=O)Cc2ccc(OC)c([N+](=O)[O-])c2)c(OC)c1
3 | 122 to 123 | COC(=O)Cc1csc(NC(C)=O)n1
4 | 83 to 85 | O=C1c2ccccc2C(=O)N1CCSCc1ccc(C2OCCO2)o1
5 | 63 to 64 | Cc1cc(CCCCCCCCOc2ccc(C3=NCCO3)cc2Cl)on1
6 | 191 to 193 | COc1ccc(-c2cc(=O)c3ccc(OCC(O)CN4CCN(c5ccccc5)CC4)cc3o2)cc1OC (stereo not given)
7 | 231 to 233 | COc1c(C)cnc(CSc2nc(C)cc(=O)[nH]2)c1C
8 | 44 to 45 | COc1ncc(Cl)c(C)c1Br
9 | 265 | CC(=O)Nc1[nH]cc(-c2ccc(NS(=O)(=O)c3cccc(Cl)c3Cl)cc2)c1C(N)=O
10 | 162 to 164 | CC1(CC(=O)O)OCCc2nc(-c3ccc(Cl)cc3)sc21 (stereo not given)
11 | 63 to 70 | CCN1C(Cl)=NC(OC)=NS1(=O)=O
12 | 89 to 91 | CCCC(Oc1cncc(Cl)c1)C(=O)O (stereo not given)
13 | 78 | CCOc1c(Cl)cc([N+](=O)[O-])c(OCC)c1[N+](=O)[O-]
14 | 155 to 156 | CC(C)C(=O)c1ccc2oc3ncccc3c(=O)c2c1
15 | > 215 | COc1cc2ncc(C#N)c(Nc3ccc(F)c(Cl)c3)c2cc1NC(=O)C=CCN1CCC(O)CC1
16 | 191 to 194 | COc1ccc2c(c1)C(=O)CC1(CCN(SCCc3cc(=O)n(C)c(=O)n3C)CC1)O2
17 | 132 to 134 | O=c1n(C2CCOC2)cc(-c2ccncc2)n1-c1ccc(F)cc1 (stereo not given)
18 | 116 | CCOC(=O)C(C)Sc1ccc(-c2nc(=O)c3ccccc3s2)cn1 (stereo not given)
19 | 192 to 193 | O=C1C=C(Oc2ccc(-c3ccccc3)cc2)C(O)O1 (stereo not given)
20 | 181 to 183 | COc1ccc(N(c2ccccc2)c2ccc(-c3ccc(-c4ccc(N(c5ccccc5)c5ccc(OC)cc5C)cc4)cc3)cc2)c(C)c1

Row | melting point [°C] | Structure (SMILES)
21 | 122 to 124 | Cn1c(S(=O)(=O)C(F)(F)C(F)F)nc(-c2ccc(F)cc2)c1-c1ccc(F)cc1
22 | 251 to 252 | O=c1[nH]c(Cl)nc2ccccc12
23 | 128 | CN(Cc1ccccc1)C(=O)c1cc2ccccc2c(-c2ccccc2Cl)n1
24 | 90.5 to 91.5 | CC(CC(F)(F)F)C(N)=O (stereo not given)
25 | 160 | O=C(O)C1CCN(c2ncc(NS(=O)(=O)C(F)(F)F)c(NCc3ccccc3)n2)CC1
26 | 107 to 108 | CCOC(=O)c1csc(-c2ccc3cc4c(cc3c2)C(C)(C)CCC4(C)C)c1
27 | 219 to 222 | CC(C)(C)c1cc(NC(=O)c2cccc(C#N)c2)cc(C(C)(C)C)c1O
28 | 90 to 95 | CC(C)(C)c1cc(CN2CC(N(O)C(N)=O)C2)cc(C(C)(C)C)c1O
29 | 169 to 170 | COc1c(Oc2ccccc2C)cccc1C(N)C(=O)O (stereo not given)
30 | 197 | COc1cccc(-c2nc(N)nc(Nc3cccc([N+](=O)[O-])c3)n2)c1
31 | 142 | CCCCCCCCCCCCCCCCCCS(=O)(=O)Nc1ccc(O)cc1
32 | 261 to 263 | O=Cc1ccc(-n2ncc3sc4ccccc4c32)cc1
33 | > 260 | CCCCCCCCCCCCOC(=O)N[C@@H](CCCCN)C(=O)O
34 | 72 to 74 | CCOCc1nc2c(N)nc(C)cc2n1CC(C)C
35 | 120 | CC(C(=O)O)c1cccc(NC(=O)NCC(=O)N2[C@@H](c3ccccc3)CC[C@H]2C(=O)OC(C)(C)C)c1 (stereo not given in full)
36 | 237 to 238 | CC(=O)N1C(=O)C2(CC2)c2ccc(N3C(=O)C4=C(CCCC4)C3=O)cc21
37 | 79 to 81 | OC1CCc2ccc(Cl)cc2C1 (stereo not given)
38 | 73 to 76 | O=C(O)C(=CNc1ccc(OCc2ccccc2)c(OCc2ccccc2)c1)C(=O)O
39 | 123 to 130 | CCCCCC(C(=O)O)n1cnc2cc(-c3ccccc3-c3nn[nH]n3)ccc21 (stereo not given)

Row | Structure (SMILES) | melting point [°C]
40 | C=CCOc1cc(N2C(=O)C3CCCCN3C2=O)c(F)cc1C#N (stereo not given) | 132
